Source: ChEMBL document CHEMBL1201862, “PubChem BioAssay data set” (2004)
Active and inactive are the calls of the source.

Columns and labels:
[1] = Trypanosoma cruzi growth suppression in host cells – NIH3T3 host cells, beta-gal luminescence, confirmation (AID 2044); assay type: functional, cell-based;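 further: intracellular parasites grown in NIH/3T3 mouse fibroblasts as host cells; luminescent beta-galactosidase reporter signal from transgenic T. cruzi replicating inside host cells; inhibitors lower the luminescence signal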
[2] = NIH3T3 cell viability loss – ATP luminescence, mouse fibroblasts, counter-screen, dose response (AID 2010); assay type: functional, cell-based;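 further: cells exposed to compound for about 90 hours before reading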
Cytochrome P450 1A2 = biological target: T1, Cytochrome P450 1A2 (Homo sapiens, UniProt P05177);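 further: PubChem cytochrome P450 panel assay, CYP1A2 panel member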
T1 sequence (P05177 whole entry): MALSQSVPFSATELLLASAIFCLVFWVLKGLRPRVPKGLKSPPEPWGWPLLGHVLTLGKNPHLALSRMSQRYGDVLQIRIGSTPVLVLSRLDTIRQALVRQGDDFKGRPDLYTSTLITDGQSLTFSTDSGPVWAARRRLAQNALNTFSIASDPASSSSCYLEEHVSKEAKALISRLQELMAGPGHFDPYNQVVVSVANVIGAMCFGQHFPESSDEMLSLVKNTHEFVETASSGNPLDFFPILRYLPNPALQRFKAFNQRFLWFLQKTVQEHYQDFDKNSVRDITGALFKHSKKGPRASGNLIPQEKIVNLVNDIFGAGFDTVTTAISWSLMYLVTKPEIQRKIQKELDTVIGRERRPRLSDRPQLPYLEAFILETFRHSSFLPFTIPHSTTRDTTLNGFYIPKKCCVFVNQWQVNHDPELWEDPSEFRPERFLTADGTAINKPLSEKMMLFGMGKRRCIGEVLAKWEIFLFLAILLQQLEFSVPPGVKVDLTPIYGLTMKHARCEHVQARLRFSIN

[3] = biological target: T2, Corticotropin-releasing factor receptor 2/Corticotropin-releasing factor-binding protein (Homo sapiens, UniProt P24387+Q13324); experiment: activators of CRF receptor 2 with binding protein – uHTS hits, confirmation (AID 602473); assay type: functional; conditions: read-out: EC50_Mean
T2 sequence (Q13324 whole entry): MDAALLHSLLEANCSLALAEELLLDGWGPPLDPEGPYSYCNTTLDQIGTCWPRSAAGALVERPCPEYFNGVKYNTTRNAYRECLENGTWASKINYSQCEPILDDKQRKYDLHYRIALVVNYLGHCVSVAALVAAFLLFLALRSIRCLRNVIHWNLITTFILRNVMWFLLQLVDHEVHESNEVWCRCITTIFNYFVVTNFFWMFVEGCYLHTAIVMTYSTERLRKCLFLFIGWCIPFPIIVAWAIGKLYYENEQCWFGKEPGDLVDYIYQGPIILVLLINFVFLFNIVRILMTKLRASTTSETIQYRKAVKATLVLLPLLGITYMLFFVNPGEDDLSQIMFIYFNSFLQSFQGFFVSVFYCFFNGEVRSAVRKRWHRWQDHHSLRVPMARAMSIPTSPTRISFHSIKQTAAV
T2 sequence (P24387 whole entry): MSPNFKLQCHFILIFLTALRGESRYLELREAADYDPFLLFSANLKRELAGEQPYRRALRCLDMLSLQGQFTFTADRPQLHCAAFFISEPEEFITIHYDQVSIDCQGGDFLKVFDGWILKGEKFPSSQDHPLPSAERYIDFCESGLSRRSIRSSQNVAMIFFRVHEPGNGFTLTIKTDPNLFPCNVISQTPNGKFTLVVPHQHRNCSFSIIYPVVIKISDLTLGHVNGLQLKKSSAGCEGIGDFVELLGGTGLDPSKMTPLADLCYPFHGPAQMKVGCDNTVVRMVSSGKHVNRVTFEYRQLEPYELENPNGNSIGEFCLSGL

[4] = biological target: T3, Rac GTPase-activating protein 1 (Homo sapiens, UniProt Q9H0H5); experiment: blockers of MgcRacGAP-driven Rac1 GTP hydrolysis – biochemical, ADP Hunter fluorescence, primary and confirmatory, confirmation (AID 624330); assay type: functional
T3 sequence (Q9H0H5 whole entry): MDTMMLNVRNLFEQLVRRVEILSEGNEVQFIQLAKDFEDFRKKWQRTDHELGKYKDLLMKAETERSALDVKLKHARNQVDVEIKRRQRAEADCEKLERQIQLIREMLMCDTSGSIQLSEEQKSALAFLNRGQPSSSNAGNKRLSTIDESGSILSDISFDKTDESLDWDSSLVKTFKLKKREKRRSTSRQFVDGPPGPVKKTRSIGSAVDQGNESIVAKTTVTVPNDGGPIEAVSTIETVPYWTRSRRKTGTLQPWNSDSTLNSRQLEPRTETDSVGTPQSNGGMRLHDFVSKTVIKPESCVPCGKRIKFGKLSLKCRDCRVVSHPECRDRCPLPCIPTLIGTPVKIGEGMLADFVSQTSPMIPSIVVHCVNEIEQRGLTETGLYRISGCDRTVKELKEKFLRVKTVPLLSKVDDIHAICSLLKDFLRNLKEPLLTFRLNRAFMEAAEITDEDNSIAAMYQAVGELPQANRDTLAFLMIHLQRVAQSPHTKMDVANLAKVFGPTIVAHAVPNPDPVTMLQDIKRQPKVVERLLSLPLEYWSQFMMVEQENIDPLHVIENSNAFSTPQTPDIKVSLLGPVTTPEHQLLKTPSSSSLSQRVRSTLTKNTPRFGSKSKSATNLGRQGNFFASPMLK

Cytochrome P450 2C19 = Cytochrome P450 2C19 (Homo sapiens, UniProt P33261); experiment: Cytochrome panel assay with activity outcomes. Panel member name: p450-cyp2c19 Compounds with AC50 equal or less than 10 uM are considered active; assay type: functional
Streptococcus = experiment: GAS UMAA2166 growth inhibition – luminescence, BacTiterGlo, counter-screen for streptokinase expression inhibitor project, dose response (AID 1915); assay type: functional, organism-based;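 further: potency for reduction of bacterial viability or growth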
[5] = test system: Streptococcus sp. 'group A'; experiment: Streptococcus pyogenes SK(-)GAS viability under kanamycin – luminescence, BacTiterGlo, confirmation, counter-screen for streptokinase expression inhibitor project, dose response (AID 1900); assay type: functional, organism-based
[6] = reduction of Shn3 3'UTR-driven luciferase in osteoblasts – cell-based, Clone20 osteoblasts, firefly luciferase, cherry-picked, dose response (AID 624132); assay type: functional;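 further: firefly luciferase luminescence from reporter carrying the Shn3 3'UTR in osteoblasts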
H4 = experiment: Luminescence Cell-Based Dose Response HTS to Identify Activators of 5'UTR Stem-Loop Driven Prion Protein mRNA Translation in H4 Neuroglioblastoma Cells. [Related pubchem assays: 1829 (Project Summary), 1814 (Primary HTS)]; assay type: functional; conditions: Homo sapiens
[7] = Luminescence Cell-Based Dose Response HTS to Identify Activators of Luciferase Translation or Activity in H4 […] Cells. [Related pubchem assays: 1829 (Project Summary), 1814 (Primary HTS)]; assay type: functional

Sequence of Cytochrome P450 2C19 (P33261 whole entry): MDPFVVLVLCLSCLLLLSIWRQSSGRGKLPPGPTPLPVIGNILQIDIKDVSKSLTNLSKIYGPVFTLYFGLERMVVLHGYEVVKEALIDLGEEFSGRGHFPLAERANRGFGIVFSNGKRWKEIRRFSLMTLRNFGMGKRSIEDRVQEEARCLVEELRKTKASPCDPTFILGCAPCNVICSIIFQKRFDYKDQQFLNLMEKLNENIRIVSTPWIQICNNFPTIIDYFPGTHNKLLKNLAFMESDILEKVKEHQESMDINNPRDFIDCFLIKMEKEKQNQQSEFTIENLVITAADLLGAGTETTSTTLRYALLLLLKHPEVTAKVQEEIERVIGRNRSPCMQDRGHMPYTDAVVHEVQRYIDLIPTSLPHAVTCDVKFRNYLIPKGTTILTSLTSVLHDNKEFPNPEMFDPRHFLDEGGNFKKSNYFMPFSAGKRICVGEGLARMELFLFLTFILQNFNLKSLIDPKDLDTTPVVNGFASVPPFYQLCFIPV

With Cc1c(NC(=O)c2ccc(-c3ccc([N+](=O)[O-])cc3Cl)o2)c(=O)n(-c2ccccc2)n1C the EC50 [1] was 0.839 µM (active) and the EC50 [2] was > 60 µM (inconclusive).
With CN1CCN(c2ncc3nc(-c4cccs4)c(=O)n(CCc4ccccc4)c3n2)CC1 the AC50 (Cytochrome P450 1A2) was 2.51 µM (inconclusive).
For COc1cccc(/C=N/N2CCN(c3ccncc3S(=O)(=O)N3CCCCC3)CC2)c1, the EC50 [1] was 1.71 µM (active) and the EC50 [2] was > 60 µM (not active).
With O=C(Nc1ccccc1)N1CC[C@@]2(CCCN(C(=O)c3ccco3)C2)C1 the AC50 (Cytochrome P450 1A2) was 10 µM (inconclusive).
For CCN(Cc1ccncc1)C(=O)c1cc(COc2c(C)cccc2C)on1, the EC50 [1] was 1.42 µM (active) and the EC50 [2] was > 60 µM (not active).
With CCC1CCCCN1CC(=O)c1c(C)[nH]c2ccccc12 (stereo not drawn) the EC50 [3] was 22.6 µM (active).
With COc1ccc(CN2CCN(Cc3ccc(Br)cc3)CC2)c(OC)c1OC the IC50 [4] was 70.2 µM (active).
In the case of Cc1cc(C)c2c(N)c(C(=O)c3ccccc3)sc2n1, the EC50 [1] is reported as 0.225 µM (active) and the EC50 [2] is reported as > 60 µM (not active).
With CC(=O)Nc1sc2c(c1C(N)=O)CCCC2 the AC50 (Cytochrome P450 2C19; read-out: AC50) was 35.5 µM (inconclusive).
For CCCCn1cnc2c(SC)ncnc21, the AC50 (Cytochrome P450 1A2) was 3.16 µM (inconclusive).
For O=C1[C@H]2C(c3ccccc3)=NN(c3ccccc3)[C@H]2C(=O)N1c1ccccc1, the EC50 (Streptococcus) was 3.62 µM (active) and the EC50 [5] was 0.614 µM (active).
With C1CCC(CNc2c3c(nc4nnnn24)CCCC3)CC1 the EC50 [1] was 1.87 µM (active) and the EC50 [2] was > 60 µM (not active).
In the case of C[C@@]12CC[C@H](O)C[C@@H]1CC[C@@H]1[C@@H]2CC[C@@]2(C)[C@@H](C3=CC(=O)OC3)[C@H](O)C[C@]12O, the AC50 (Cytochrome P450 2C19) is reported as “inconclusive”.
In the case of CCn1cc(CN2CCCC(C(=O)c3cccc(OC)c3)C2)c(C)n1 (stereo not drawn), the EC50 [1] is reported as 0.426 µM (active) and the EC50 [2] is reported as > 60 µM (inconclusive).
With O=C(Nc1cccc(F)c1)N1CC=C(c2ccc(Cl)cc2)CC1 the EC50 [1] was 1.48 µM (active) and the EC50 [2] was > 60 µM (not active).
With O=C(NC1CCN(Cc2ccccc2)CC1)C1CCN(S(=O)(=O)c2ccccc2)CC1 the EC50 [1] was 0.424 µM (active) and the EC50 [2] was > 60 µM (not active).
For C[C@H](CCC(=O)O)[C@H]1CC[C@]2(C)[C@@H]3C(=O)C[C@H]4C(C)(C)[C@@H](O)CC[C@]4(C)[C@H]3C(=O)C[C@@]12C, the AC50 (Cytochrome P450 2C19) was “inconclusive”.
For CC1=NN(c2ccccc2)C(=O)C1C(=O)c1ccc(Cl)cc1 (stereo not drawn), the AC50 (Cytochrome P450 2C19; read-out: AC50) was 39.8 µM (inconclusive).
With Cc1ccccc1C1c2[nH]c3ccccc3c2C[C@H]2C(=O)N(C3CCN(Cc4ccccc4)CC3)CC(=O)N12 (stereo partly drawn) the EC50 [1] was 1.98 µM (active) and the EC50 [2] was 13.3 µM (active).
In the case of Cc1ccc(S(=O)(=O)NCCc2cc3ccc(C)cc3nc2O)cc1, the AC50 [6] is reported as > 70 µM (inactive).
For COc1cc(CN2CCCC(CO)(Cc3cccc(Cl)c3)C2)cc2c1OCO2 (stereo not drawn), the EC50 [1] was 0.419 µM (active) and the EC50 [2] was > 60 µM (not active).
For Cc1ccn2c(S)nnc2c1, the IC50 [4] was 19.4 µM (active).
For CCC(CC)C(=O)NC1CCSC1=O (stereo not drawn), the AC50 (Cytochrome P450 2C19) was “inconclusive” and the AC50 (Cytochrome P450 1A2) was 39.8 µM (inconclusive).
For OCCCCNc1cccc2ccccc12, the IC50 [4] was 22.8 µM (active).
In the case of S=C(NCCN1CCOCC1)Nc1ccc(Nc2ccccc2)cc1, the IC50 [4] is reported as 129 µM (active).
With COc1ccc(CNc2ccc(N3CCN(C(C)=O)CC3)cc2)cc1OC the IC50 [4] was 12 µM (active).
In the case of CCC(=O)Nc1cccc(-n2nnnc2SCC(=O)N2CCCCC2)c1, the EC50 [3] is reported as 11.7 µM (active).
For CCC(=O)Nc1ccc(Nc2ccccc2)cc1, the IC50 [4] was 53.6 µM (active).
For Cc1[nH]c2ccccc2c1SCc1nnc(SCc2ccc(Cl)cc2)n1C, the EC50 [1] was 3.54 µM (active) and the EC50 [2] was 12.3 µM (active).
With CCOC(=O)Nc1ccc(OC(=O)Oc2ccc(NC(=O)OCC)cc2)cc1 the IC50 [4] was 31.8 µM (active).
With O=C(O)C1C2C=CC3(CN(Cc4ccccn4)C(=O)C13)O2 (stereo not drawn) the AC50 (Cytochrome P450 2C19) was “inconclusive”.
In the case of Nc1nc(NCCOCCO)nc(N2CCCCCC2)c1[N+](=O)[O-], the EC50 (Streptococcus) is reported as 8.6 µM (active) and the EC50 [5] is reported as 5.73 µM (active).
With CCOc1ccccc1N(C)C(=O)c1cc2c(=O)n(CC)c3ccccc3c2s1 the EC50 [1] was 1.43 µM (active) and the EC50 [2] was > 60 µM (not active).
In the case of CCOc1ccccc1/C=N\Nc1cnn(Cc2ccccc2)c(=O)c1Cl, the EC50 [1] is reported as 3.38 µM (active) and the EC50 [2] is reported as > 60 µM (inconclusive).
With CCC(=O)Nc1ccc2nc(C3CC3)n(Cc3ccc(C(C)(C)C)cc3)c(=O)c2c1 the EC50 [1] was 0.325 µM (active) and the EC50 [2] was > 60 µM (not active).
With CC1CCC2CCCCC2N1C(=O)c1cc([N+](=O)[O-])cc([N+](=O)[O-])c1 (stereo not drawn) the EC50 [1] was 0.212 µM (active) and the EC50 [2] was > 60 µM (not active).
With CN(C)C(=O)c1ccc(-c2cc(Nc3ccccc3)ncn2)cc1 the AC50 (Cytochrome P450 1A2) was 12.6 µM (inconclusive).
With O=C(NCCCN1CCOCC1)c1ccc(Sc2ccc(F)cc2)c([N+](=O)[O-])c1 the EC50 [1] was 1.01 µM (active) and the EC50 [2] was > 60 µM (inconclusive).
For COC(=O)c1c(-c2ccc3ccccc3c2)csc1NC(=O)Cc1ccc(OC)c(OC)c1, the AC50 (Cytochrome P450 1A2) was 11.2 µM (inconclusive).
With Nc1ccc(N2CCCC2)c(S(=O)(=O)Nc2cccc(C(F)(F)F)c2)c1 the IC50 [4] was 120 µM (active).
In the case of COC(=O)N1N=C(c2ccc(Br)cc2)CC1(O)C(F)(F)F (stereo not drawn), the EC50 (H4) is reported as 0.745 µM (active) and the EC50 [7] is reported as 2.85 µM (active).
For C[C@@H]1CCc2cc(F)cc3c(=O)c(C(=O)O)cn1c23, the AC50 (Cytochrome P450 1A2) was 12.6 µM (inconclusive).
For COc1ccc(CN2CCC(N3CC(C)OC(C)C3)CC2)c(OC)c1OC (stereo not drawn), the IC50 [4] was 66 µM (active).
With Cc1ccc(C(=O)Nc2c(C#N)c(C)c(C)n2Cc2ccccc2)cc1 the AC50 (Cytochrome P450 2C19; read-out: AC50) was 0.447 µM (inconclusive).
For Cc1ccc(S(=O)(=O)C(C#N)c2nc3ccccc3nc2N2CCCC2)cc1 (stereo not drawn), the EC50 [3] was > 53 µM (inactive).
With COc1cc(/C=N/Nc2nc3ccccc3s2)ccc1O the IC50 [4] was 69.6 µM (active).
With Cc1ccc(Cc2cnc(N3C(=N)SC(c4ccccc4)C3=O)s2)cc1 (stereo not drawn) the EC50 (Streptococcus) was 5.16 µM (active) and the EC50 [5] was 0.181 µM (active).
